Data reported in US9278950B2, “Bicyclic aromatic carboxamide compounds useful as Pim kinase inhibitors” (Incyte Corporation, priority 2013, dated 2016).
pIC50: −log10 of the molar value.

What was measured:
Assay type in all cases: biochemical
[1] = target: T1, Pim-3 (Homo sapiens, UniProt Q86V86); assay: Pim-3 kinase assay (Pim enzyme assays, Example A); conditions: 1 mM ATP; read-out: Pim3 IC50
T1 construct: purchased Millipore 14-738
Protocol: (§1) Pim-1 and Pim-3 kinase assays-20 μL reactions were run in white 384 well polystyrene plates dotted with 0.8 μL compound/DMSO in the assay buffer (50 mM Tris, pH 7.5, 0.01% Tween-20, 5 mM mgCl2, 0.01% BSA, 5 mM DTT), containing 0.05 μM Biotin-labeled BAD peptide substrate (AnaSpec 62269), 1 mM ATP, and […] (Pim-1, Invitrogen PV3503) or […] (Pim-3, Millipore 14-738) enzyme for 1 h at 25° C. Reactions were stopped by addition of 10 μL STOP Buffer (150 mM Tris, pH=7.5, 150 mM NaCl, 75 mM EDTA, 0.01% Tween-20, 0.3% BSA,) supplemented with Phospho-Bad (Ser 12) Antibody (Cell Signaling 9291) diluted 666-fold, and Streptavidin donor beads (PerkinElmer 6760002) along with Protein-A acceptor beads (PerkinElmer 6760137) at 15 μg/mL each. Supplementation of the STOP buffer with beads and stopping the reactions were done under reduced light. Prior to the stopping reactions STOP buffer with beads was preincubated for 1 h in the dark at room temperature. After stopping the reactions, plates were incubated for 1 h in the dark at room temperature before reading on a PHERAstar FS plate reader (BMG Labtech) under reduced light.

[2] = target: T2, Pim-1 (Homo sapiens, UniProt P11309); assay: Pim-1 kinase assay (Pim enzyme assays, Example A); conditions: 1 mM ATP; read-out: Pim1 IC50
T2 construct: purchased Invitrogen PV3503
T2 sequence (P11309 whole entry): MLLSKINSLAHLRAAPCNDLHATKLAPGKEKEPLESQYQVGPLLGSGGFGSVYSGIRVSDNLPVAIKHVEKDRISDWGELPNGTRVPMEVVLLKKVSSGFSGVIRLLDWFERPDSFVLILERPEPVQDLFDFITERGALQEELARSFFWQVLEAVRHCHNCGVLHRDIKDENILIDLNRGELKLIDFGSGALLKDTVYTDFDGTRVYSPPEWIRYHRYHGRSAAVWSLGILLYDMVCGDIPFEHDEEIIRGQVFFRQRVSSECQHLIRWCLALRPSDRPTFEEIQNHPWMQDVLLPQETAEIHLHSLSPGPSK
Protocol: as §1

[3] = target: T3, Pim2 (Homo sapiens, UniProt Q9P1W9); assay: Pim-2 kinase assay (Pim enzyme assays, Example A); conditions: 1 mM ATP; read-out: Pim2 IC50
T3 construct: purchased Invitrogen PV3649
T3 sequence (Q9P1W9 whole entry): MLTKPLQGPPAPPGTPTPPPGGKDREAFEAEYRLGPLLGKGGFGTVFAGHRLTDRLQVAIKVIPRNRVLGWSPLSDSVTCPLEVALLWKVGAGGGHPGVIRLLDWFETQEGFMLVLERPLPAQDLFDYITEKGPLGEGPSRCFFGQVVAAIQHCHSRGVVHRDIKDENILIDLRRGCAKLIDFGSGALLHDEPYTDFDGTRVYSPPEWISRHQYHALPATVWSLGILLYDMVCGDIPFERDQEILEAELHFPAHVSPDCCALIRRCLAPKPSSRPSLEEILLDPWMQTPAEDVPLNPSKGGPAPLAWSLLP
Protocol: (§2) Pim-2 kinase assay—20 μL reactions were run in white 384 well polystyrene plates dotted with 0.8 μL compound/DMSO in the assay buffer (50 mM Tris, pH 7.5, 0.01% Tween-20, 5 mM mgCl2, 0.01% BSA, 5 mM DTT), containing 0.05 μM Fluorescein-labeled CREBtide peptide substrate (Invitrogen PV3508), 1 mM ATP, and 1 nM enzyme (Invitrogen PV3649) for 2 h at 25° C. Reactions were stopped by addition of 10 μL TR-FRET Dilution Buffer (Invitrogen PV3574) with 30 mM EDTA and 1.5 nM LanthaScreen Tb-CREB pSer133 antibody (Invitrogen PV3566). After 30 min. incubation at room temperature, plates were read on a PHERAstar FS plate reader (BMG Labtech).

[4] = target: T3, Pim2; assay: Pim2 assay analogous to Example A performed under Km ATP conditions; conditions: Km ATP conditions rather than 1 mM ATP
Protocol: as §2
Although the above in vitro assays are conducted at 1 mM ATP compounds can also be evaluated for potency and in vitro activity against PIM targets utilizing Km conditions, where the concentration of ATP is set to the Km value and the assay is more sensitive to PIM inhibition activity.

SMILES | pIC50 [1] | pIC50 [2] | pIC50 [3] | pIC50 [4]
CCc1ccc2cc(N)c(C(=O)Nc3cnc4c(c3N3CCC[C@H](N)C3)CCC4O)nc2c1 (single isomer, unassigned) [22 isomer 1] | < 7.40 | < 7.40 | < 5.70 | 6.00 to 7.00
NC(=O)c1ccccc1-c1ccc2cc(N)c(C(=O)Nc3cnccc3N3CCC[C@H](N)C3)nc2c1 [Example 6, 3-Amino-7-[2-(aminocarbonyl)phenyl]-N-{4-[(3S)-3-aminopiperidin-1-yl]pyridin-3-yl}quinoline-2-carboxamide] | < 7.40 | < 7.40 | < 5.70 | > 7.00
COC(=O)N[C@@H]1[C@H](N)CN(c2ccncc2NC(=O)c2nc3cc(N4CCN(C)CC4)ccc3cc2N)C[C@@H]1C [Example 60, Methyl {(3R,4S,5S)-3-amino-1-[3-({[3-amino-7-(4-methylpiperazin-1-yl)quinolin-2-yl]carbonyl}amino)pyridin-4-yl]-5-methylpiperidin-4-yl}carbamate] | ≥ 7.00 | ≥ 7.00 | 5.00 to 6.00 | 
C[C@H]1CN(c2ccncc2NC(=O)c2nc3cc(N4CCN(C)CC4)ccc3cc2N)C[C@@H](N)[C@H]1n1ccnn1 [Example 54, 3-Amino-N-{4-[(3R,4S,5S)-3-amino-5-methyl-4-(1H-1,2,3-triazol-1-yl)piperidin-1-yl]pyridin-3-yl}-7-(4-methylpiperazin-1-yl)quinoline-2-carboxamide] | ≥ 7.00 | ≥ 7.00 | < 5.70 | 
CC(O)c1ccc2cc(N)c(C(=O)Nc3cnccc3N3CCC[C@H](N)C3)nc2c1 (stereo partly drawn) [Example 15, 3-Amino-N-{4-[(3S)-3-aminopiperidin-1-yl]pyridin-3-yl}-7-(1-hydroxyethyl)quinoline-2-carboxamide] | ≥ 7.00 | ≥ 7.00 | 6.00 to 7.00 | 
CCc1ccc2cc(N)c(C(=O)Nc3cnccc3C3CCCC(N)C3)nc2c1 (centres unmarked) [Example 23, 3-Amino-N-[4-(3-aminocyclohexyl)pyridin-3-yl]-7-ethylquinoline-2-carboxamide] | ≥ 7.00 | ≥ 7.00 | 6.00 to 7.00 | 
CCc1ccc2cc(N)c(C(=O)Nc3cncc(C#N)c3N3CCC[C@H](N)C3)nc2c1 [Example 32, 3-Amino-N-{4-[(3S)-3-aminopiperidin-1-yl]-5-cyanopyridin-3-yl}-7-ethylquinoline-2-carboxamide] | ≥ 7.00 | ≥ 7.00 | < 5.70 | 
C[C@H]1CN(c2ccncc2NC(=O)c2nc3cc(N4CCOCC4=O)ccc3cc2N)C[C@@H](N)[C@@H]1O [Example 51, 3-Amino-N-{4-[(3R,4R,5S)-3-amino-4-hydroxy-5-methylpiperidin-1-yl]pyridin-3-yl}-7-(3-oxomorpholin-4-yl)quinoline-2-carboxamide] | ≥ 7.00 | ≥ 7.00 | 5.00 to 6.00 | 

Results, then the compound that gave them:

pIC50 [1] | pIC50 [2] | pIC50 [3] | pIC50 [4] | SMILES
≥ 7.00 | ≥ 7.00 | ≥ 7.00 |  | CN1CCC(c2ccc3cc(N)c(C(=O)Nc4cnccc4N4C[C@@H](N)C[C@@H](C(F)(F)F)C4)nc3c2)CC1 [Example 44, 3-Amino-N-{4-[(3S,5R)-3-amino-5-(trifluoromethyl)piperidin-1-yl]pyridin-3-yl}-7-(1-methylpiperidin-4-yl)quinoline-2-carboxamide]
≥ 7.00 | ≥ 7.00 | 6.00 to 7.00 |  | CC(C)(O)c1ccc2cc(N)c(C(=O)Nc3cnccc3N3CCC[C@H](N)C3)nc2c1 [Example 16, 3-Amino-N-{4-[(3S)-3-aminopiperidin-1-yl]pyridin-3-yl}-7-(1-hydroxy-1-methylethyl)quinoline-2-carboxamide]
≥ 7.00 | ≥ 7.00 | ≥ 7.00 |  | CCc1ccc2cc(N)c(C(=O)Nc3cnccc3N3CCC[C@H](N)C3)nc2c1 [Example 10, 3-Amino-N-{4-[(3S)-3-aminopiperidin-1-yl]pyridin-3-yl}-7-ethylquinoline-2-carboxamide]
≥ 7.00 | ≥ 7.00 | ≥ 7.00 |  | N#Cc1cccc(F)c1-c1ccc2cc(N)c(C(=O)Nc3cnccc3N3CCC[C@H](N)C3)nc2c1 [Example 7, 3-Amino-N-{4-[(3S)-3-aminopiperidin-1-yl]pyridin-3-yl}-7-(2-cyano-6-fluorophenyl)quinoline-2-carboxamide]
≥ 7.00 | ≥ 7.00 | ≥ 7.00 |  | Nc1cc2ccc(C3CCOCC3)cc2nc1C(=O)Nc1cnccc1N1C[C@@H](N)C[C@@H](C(F)(F)F)C1 [Example 39, 3-Amino-N-{4-[(3S,5R)-3-amino-5-(trifluoromethyl)piperidin-1-yl]pyridin-3-yl}-7-(tetrahydro-2H-pyran-4-yl)quinoline-2-carboxamide]
≥ 7.00 | ≥ 7.00 | 5.00 to 6.00 |  | C[C@H]1CN(c2ccncc2NC(=O)c2nc3cc(C4CCN(C)CC4)ccc3cc2N)C[C@@H](N)[C@H]1n1ccnn1 [Example 56, 3-Amino-N-{4-[(3R,4S,5S)-3-amino-5-methyl-4-(1H-1,2,3-triazol-1-yl)piperidin-1-yl]pyridin-3-yl}-7-(1-methylpiperidin-4-yl)quinoline-2-carboxamide]
≥ 7.00 | ≥ 7.00 | 5.00 to 6.00 |  | COC(=O)N[C@@H]1[C@H](N)CN(c2ccncc2NC(=O)c2nc3cc(C4CCN(C)CC4)ccc3cc2N)C[C@@H]1C [Example 62, Methyl {(3R,4S,5S)-3-amino-1-[3-({[3-amino-7-(1-methylpiperidin-4-yl)quinolin-2-yl]carbonyl}amino)pyridin-4-yl]-5-methylpiperidin-4-yl}carbamate]
≥ 7.00 | ≥ 7.00 | 6.00 to 7.00 |  | C[C@@H]1C[C@H](N)CN(c2ccncc2NC(=O)c2nc3cc(N4CCCCC4=O)ccc3cc2N)C1 [Example 45, 3-Amino-N-{4-[(3S,5R)-3-amino-5-methylpiperidin-1-yl]pyridin-3-yl}-7-(2-oxopiperidin-1-yl)quinoline-2-carboxamide]
≥ 7.00 | ≥ 7.00 | < 5.70 |  | Nc1cc2ccc(CN3CCCC3)cc2nc1C(=O)Nc1cnccc1N1CCC[C@H](N)C1 [Example 19, 3-Amino-N-{4-[(3S)-3-aminopiperidin-1-yl]pyridin-3-yl}-7-(pyrrolidin-1-ylmethyl)quinoline-2-carboxamide]
≥ 7.00 | ≥ 7.00 | 5.00 to 6.00 |  | C[C@H]1CN(c2ccncc2NC(=O)c2nc3cc(C4CCOCC4)ccc3cc2N)C[C@@H](N)[C@H]1n1ccnn1 [Example 53, 3-Amino-N-{4-[(3R,4S,5S)-3-amino-5-methyl-4-(1H-1,2,3-triazol-1-yl)piperidin-1-yl]pyridin-3-yl}-7-(tetrahydro-2H-pyran-4-yl)quinoline-2-carboxamide]
≥ 7.00 | ≥ 7.00 | < 5.70 |  | C[C@H]1CN(c2ccncc2NC(=O)c2nc3cc(N4CCN(C)C(=O)C4)ccc3cc2N)C[C@@H](N)[C@H]1n1ccnn1 [Example 52, 3-Amino-N-{4-[(3R,4S,5S)-3-amino-5-methyl-4-(1H-1,2,3-triazol-1-yl)piperidin-1-yl]pyridin-3-yl}-7-(4-methyl-3-oxopiperazin-1-yl)quinoline-2-carboxamide]
